Source: ChEMBL document CHEMBL5576127, “New CDDO Arylboronate Ester Derivatives with High Selectivity and Low Toxicity” (J Med Chem, 2024)
pIC50: −log10 of the molar value.

Assays:
BGC-823 = assay: Antiproliferative activity against human BGC-823 cells assessed as inhibition of cell proliferation incubated for 48 hrs by MTT assay; assay type: functional, cell-based; conditions: BGC-823, 48 h
HepG2 = assay: Antiproliferative activity against human HepG2 cells assessed as inhibition of cell proliferation incubated for 48 hrs by MTT assay; assay type: functional, cell-based; conditions: HepG2, 48 h
MCF7 = assay: Antiproliferative activity against human MCF7 cells assessed as inhibition of cell proliferation incubated for 48 hrs by MTT assay; assay type: functional, cell-based; conditions: MCF7, 48 h
[1] = Cytotoxicity against human GES1 cells assessed as inhibition of cell proliferation incubated for 48 hrs by MTT assay; assay type: toxicity, cell-based
[2] = Cytotoxicity against human MCF-10A cells assessed as inhibition of cell proliferation incubated for 48 hrs by MTT assay; assay type: toxicity, cell-based
[3] = Cytotoxicity against human L02 cells assessed as inhibition of cell proliferation incubated for 48 hrs by MTT assay; assay type: toxicity, cell-based

pIC50 (BGC-823) | pIC50 (HepG2) | pIC50 (MCF7) | Structure (SMILES) | IC50 at 48 h [1] [µM] | IC50 at 48 h [2] [µM] | IC50 at 48 h [3] [µM]
5.92 | 5.55 | 5.96 | CC1(C)CC[C@]2(C(=O)OCCCOc3ccc(NC(=O)OCc4ccc(B5OC(C)(C)C(C)(C)O5)cc4)cc3)CC[C@]3(C)[C@H](C(=O)C=C4[C@@]5(C)C=C(C#N)C(=O)C(C)(C)[C@@H]5CC[C@]43C)[C@@H]2C1 | 1.5 | 1.8 | 3.5
5.68 | 5.55 | 5.80 | CC1(C)CC[C@]2(C(=O)OCCCCCOC(=O)c3ccc(OCc4ccc(B5OC(C)(C)C(C)(C)O5)cc4)cc3)CC[C@]3(C)[C@H](C(=O)C=C4[C@@]5(C)C=C(C#N)C(=O)C(C)(C)[C@@H]5CC[C@]43C)[C@@H]2C1 | 2.8 | 3.1 | 3.5
5.42 | 5.44 | 5.54 | CC1(C)CC[C@]2(C(=O)OCCOC(=O)c3ccc(OCc4ccc(B5OC(C)(C)C(C)(C)O5)cc4)cc3)CC[C@]3(C)[C@H](C(=O)C=C4[C@@]5(C)C=C(C#N)C(=O)C(C)(C)[C@@H]5CC[C@]43C)[C@@H]2C1 | 4.7 | 4 | 5
5.70 | 5.52 | 5.82 | CC1(C)CC[C@]2(C(=O)OCCCOC(=O)c3ccc(OCc4ccc(B5OC(C)(C)C(C)(C)O5)cc4)cc3)CC[C@]3(C)[C@H](C(=O)C=C4[C@@]5(C)C=C(C#N)C(=O)C(C)(C)[C@@H]5CC[C@]43C)[C@@H]2C1 | 2.7 | 3.1 | 3.6
6.15 | 5.70 | 6.00 | CC1(C)CC[C@]2(C(=O)OCCc3ccc(OCc4ccc(B5OC(C)(C)C(C)(C)O5)cc4)cc3)CC[C@]3(C)[C@H](C(=O)C=C4[C@@]5(C)C=C(C#N)C(=O)C(C)(C)[C@@H]5CC[C@]43C)[C@@H]2C1 | 0.8 | 1.7 | 2.1
5.46 | 5.27 | 5.46 | COc1cc(C(=O)OCCCCOC(=O)[C@]23CCC(C)(C)C[C@H]2[C@H]2C(=O)C=C4[C@@]5(C)C=C(C#N)C(=O)C(C)(C)[C@@H]5CC[C@@]4(C)[C@]2(C)CC3)cc(OC)c1OCc1ccc(B2OC(C)(C)C(C)(C)O2)cc1 | 4.2 | 4 | 6.1
5.26 | 5.44 | 5.46 | COc1ccc(/C=C/CC(=O)OCCCOC(=O)[C@]23CCC(C)(C)C[C@H]2[C@H]2C(=O)C=C4[C@@]5(C)C=C(C#N)C(=O)C(C)(C)[C@@H]5CC[C@@]4(C)[C@]2(C)CC3)cc1OCc1ccc(B2OC(C)(C)C(C)(C)O2)cc1 | 6.6 | 4 | 5
